In patent US8927504B2, “Combined use of dipeptidyl peptidase 4 inhibitor and sweetener” (Mitsubishi Tanabe Pharma Corporation, priority 2007, dated 2015):

How the values were obtained:
[1] = tested on: active GLP-1 in plasma; experiment: GLP-1 secretion-stimulating action by combined use of DPP4 inhibitor and sweetener (1), Example 2; type: in vivo, mouse; conditions: C57BL/6J mice
Procedure: Male SD(CD)/Crj rats (Charles River Laboratories Japan, Inc.) (6-week-old at time of use) or male C57BL/6J mice (Clea Japan, Inc.) (9-week-old at time of use) were used in the test.
These study animals were used in the test after first grouping according to body weight. The animals were orally administered (10 mL/kg) a test DPP4 inhibitor (or purified water as a control). At 30 minutes after administration, the animals were then orally administered (10 mL/kg) a solution of a test sweetener (or purified water as a control) followed by collecting blood samples at 0, 30, 60, 180 and 300 minutes after administration. These samples were then measured for concentrations of active GLP-1 in plasma.
Measurement of plasma active GLP-1 concentrations was carried out in the same manner as (1) of Example 1 above.
The measurement results were tested for the presence of a significant difference between groups by comparing the sweetener-loaded groups with the control group using Dunnett's multiple comparison test (two-sided test). Here, a P value less than 5% was considered statistically significant, and statistical analysis software (EXSAS: Biological Experimental Data Statistical Analysis System, Arm Systex Co., Ltd.) was used to analyze the data.
C57BL/6J mice were used for the study animals. […]

[2] = Body weight-reducing test using DIO (diet-induced obesity) mice (1), Example 3; type: in vivo, mouse; conditions: Compound A alone 10 mg/100 g in-feed; high fat diet-fed C57BL/6J mice
Procedure: High fat diet-fed, male C57BL/6J mice (Clea Japan, Inc.) were used in the test.
Fed a high fat diet was carried out by allowing 3-week-old, male C57BL/6J mice (Clea Japan, Inc.) to free access to a high-fat diet having 37.2 w/w % fat content and 5.578 kcal/g calorie level (available from Oriental Yeast Co., Ltd.) for feed. Normal diet control mice were allowed free access to CRF-1 (fat content: 5.7 w/w %, calorie level: 3.59 kcal/g, available from Oriental Yeast Co., Ltd.).
The mice were used in the test after housing to age 39 weeks while fed a high fat diet in this manner.
These study animals were used in the test after first grouping according to body weight and blood sugar level.
The animals were administered test DPP4 inhibitor and test sweetener either orally or in-feed. […]
Body weight and food intake were measured over time after the start of administration of the test substances.
Moreover, in the case body weight-reducing effect was observed, body composition was measured using a laboratory mouse X-ray body fat percentage measuring device (PIXImus2, GE Medical Systems Inc.) under pentobarbital anesthesia (70 mg/kg, i.p.). […]

[3] = administration to mice; JP H6-65080; cited from earlier work
[4] = tested on: active GLP-1 in plasma; experiment: GLP-1 secretion-stimulating action by combined use of DPP4 inhibitor and sweetener (2), Example 4; type: in vivo, mouse; conditions: 1 hour after dosing, relative to 100 for Compound A′ and fructooligosaccharide 6 g/kg, C57BL/6J mice
Procedure: Male C57BL/6J mice (Clea Japan, Inc.) (7-week-old at time of use) were used in the test.
These study animals were used in the test after first fasting starting on the night prior to the test and then grouping according to body weight. The animals were orally administered test DPP4 inhibitor (or purified water as a control) (10 mL/kg). At 30 minutes after administration, the animals were then orally administered (10 mL/kg) a solution of test sweetener (or purified water as a control) followed by collecting blood samples at 0, 30, 60, 180 and 300 minutes after administration. These samples were then measured for concentrations of active GLP-1 in plasma.
Measurement of plasma active GLP-1 concentrations and analysis and testing of the measurement results were carried out in the same manner as (1) of Example 1 above.
Fructooligosaccharide (Meiji Seika Kaisha Ltd.), kestose (Meiji Seika Kaisha Ltd., GF2), raffinose (Wako Pure Chemical Industries, Ltd.), melibiose (Wako Pure Chemical Industries, Ltd.), xylooligosaccharide (Suntory Ltd.), xylose (Wako Pure Chemical Industries, Ltd.), xylitol (Wako Pure Chemical Industries, Ltd.), sorbitol (Wako Pure Chemical Industries, Ltd.), D-mannitol (Wako Pure Chemical Industries, Ltd.), erythritol (Wako Pure Chemical Industries, Ltd.), maltitol (Hayashibara Biochemical Laboratories, Inc.), sucralose (San-Ei Gen F.F.I., Inc.) or acesulfame K (Wako Pure Chemical Industries, Ltd.) was used as sweetener and administered orally (10 mL/kg) at 6 g/kg, 3 g/kg or 1 g/kg.
In addition, (2S)-2-cyano-1-[trans-4-(dimethylaminocarbonyl)cyclohexylamino]acetylpyrrolidine benzenesulfonate (hereafter referred to as Compound A′) as DPP4 inhibitor (or purified water as a control) was used at 10 mg/kg and administered orally (10 mL/kg).
Blood active GLP-1 level-increasing action was tested for the cases of combined use of DPP4 inhibitor and each type of sweetener in accordance with the method described in (1) above (n=4 to 5 animals per group).
Blood active GLP-1 concentrations (1 hour after dosing) in the groups dosed with both each type of sweetener (6 g/kg, 3 g/kg or 1 g/kg) and Compound A′ (10 mg/kg) were represented as relative values with respect to blood active GLP-1 concentrations (1 hour after dosing) in the group dosed with fructooligosaccharide (6 g/kg) and Compound A′.

[5] = tested on: GLP-1; conditions: Shima et al., Acta Endocrinologica 1990; cited from earlier work
[6] = tested on: active GLP-1 in plasma; experiment: GLP-1 secretion-stimulating action of sweetener in DPP4-deficient rats (blood active GLP-1 level-increasing action), Example 1; type: in vivo, rat; conditions: sweetener alone 3 to 6 g/kg/10 mL orally; DPP4-deficient F344DucrlCrlj rats
Procedure: Male […] rats (Charles River Laboratories Japan, Inc.) (7 to 10-week-old at time of use) were used for the study animals. […] rats are known to be rats of a strain having a spontaneous DPP4 gene deficiency (Watanabe, et al., Experientia, 1987, 43:400-401). These study animals were used in the test after fasting starting on the night prior to the test and grouping according to body weight. The animals were orally administered (10 mL/kg) a solution of the test sweetener (or purified water as a control) followed by collecting blood samples from the tip of the tail at 0, 30, 60, 180 and 360 minutes after dosing. These samples were then measured for concentrations of active GLP-1 in plasma. Measurement of plasma active GLP-1 concentrations was carried out in the following manner. […] Plasma GLP-1 concentrations were then measured using the Bio-Plex Suspension Array System (Rat Endocrine LINCOplex Kit; available from Linco Research, Inc.) or the Glucagon-like Peptide-1 (Active) ELISA KitTM (available from Linco Research, Inc.; active GLP-1 measurement kit). The measurement results were tested for the presence of a significant difference between groups by comparing the sweetener-loaded group with the control group using Dunnett's multiple comparison test (two-sided test). […] Biological Experimental Data Statistical Analysis System, from Arm Systex Co., Ltd.) was used to analyze the data.

[7] = sweetener 6 g/kg orally combined with Compound A′ 10 mg/kg orally

CN(C)C(=O)[C@H]1CC[C@H](NCC(=O)N2CCC[C@H]2C#N)CC1.Cl (relative stereo) [Compound A, (2S)-2-cyano-1-[trans-4-(dimethylaminocarbonyl)cyclohexylamino]acetylpyrrolidine hydrochloride]
plasma active GLP-1 levels ([1]; Compound A 10 mg/kg orally alone): no increases in plasma active GLP-1 levels observed | body weight as compared with the control group [2]: no changes in body weight

O=C[C@H](O)[C@@H](O)[C@@H](O)CO [L-arabinose]
weight gain [3]: inhibited weight gain in mice

OC[C@@H](O)[C@@H](O[C@H]1O[C@H](CO)[C@@H](O)[C@H](O)[C@H]1O)[C@H](O)[C@@H](O)CO [Maltitol, α-D-glucopyranosyl-(1→4)-D-glucitol]
Plasma active GLP-1 concentration (relative value) [4, 7]: 422 | blood GLP-1 levels following administration [5]: blood GLP-1 levels are increased

OC[C@@H](O)[C@H](O)[C@@H](O)CO [Xylitol, xylitol]
levels of active GLP-1 in plasma as compared with the control group [6]: remarkably high values | Plasma active GLP-1 concentration (relative value) ([4]; sweetener 3 g/kg orally combined with Compound A′ 10 mg/kg orally): 272 | Plasma active GLP-1 concentration (relative value) [4, 7]: 774

O=C[C@H](O)[C@@H](O)[C@H](O)CO [Xylose, xylose]
levels of active GLP-1 in plasma as compared with the control group [6]: remarkably high values | levels of active GLP-1 in plasma in comparison with the control group ([1]; sweetener 6 g/kg orally combined with Compound A 10 mg/kg orally, fructooligosaccharide: at 30, 60, 180 and 300 minutes): remarkable increases in plasma active GLP-1 levels were observed | Plasma active GLP-1 concentration (relative value) [4, 7]: 597
